{"source": "EPA's ToxValDB 9.5 (doi:10.2903/j.efsa.2009.186r)", "key": {"Mus musculus": {"tested_on": "Mus musculus", "conditions": "acute; oral; mortality"}, "Anas platyrhynchos": {"tested_on": "Anas platyrhynchos", "conditions": "acute; oral; unspecified; mortality"}, "Canidae": {"tested_on": "Canidae", "conditions": "chronic; duration: 1 years; oral; Dog Other; clinical signs"}, "Bibionidae": {"tested_on": "Bibionidae", "conditions": "chronic/long-term; duration: 28 days"}, "Colinus virginianus": {"tested_on": "Colinus virginianus", "conditions": "for LD50: acute, oral, mortality"}, "Apis mellifera": {"tested_on": "Apis mellifera", "conditions": "acute; duration: 48 hours; oral; unspecified; mortality"}, "Tagia sp.": {"tested_on": "Tagia sp.", "conditions": "acute; duration: 14 days; mortality"}, "Daphnia magna": {"tested_on": "Daphnia magna", "conditions": "chronic/long-term; duration: 21 days; reproduction"}, "Aphidius rhopalosiphi": {"tested_on": "Aphidius rhopalosiphi", "conditions": "not reported; mortality"}}, "data": [{"smiles": "Cc1c(COC(=O)[C@@H]2[C@H](/C=C(\\Cl)C(F)(F)F)C2(C)C)cccc1-c1ccccc1", "note": "[Bifenthrin]", "values": [{"measurement": "LD50", "setting": "Mus musculus", "value": 42.5, "unit": "mg/kg"}, {"measurement": "LD50", "setting": "Anas platyrhynchos", "value": "> 2150", "unit": "mg/kg"}, {"measurement": "LC50", "setting": "Oncorhynchus mykiss; acute, duration: 96 hours, mortality", "value": 0.1, "unit": "ng/mL"}, {"measurement": "NOEC", "setting": "Oncorhynchus mykiss; chronic/long-term, duration: 30 days, other", "value": "1.2e-05", "unit": "mg/L"}, {"measurement": "NOAEL", "setting": "Canidae", "value": 1.5, "unit": "mg/kg-day"}, {"measurement": "NOEC", "setting": "Bibionidae", "value": 0.00032, "unit": "mg/L"}, {"measurement": "LD50", "setting": "Colinus virginianus; diet", "value": 569, "unit": "mg/kg-day"}, {"measurement": "LD50", "setting": "Colinus virginianus", "value": 1800, "unit": "mg/kg"}, {"measurement": "NOEC", "setting": "Colinus virginianus; reproduction developmental", "value": 75, "unit": "mg/kg-day"}, {"measurement": "NOAEL", "setting": "Rattus norvegicus; developmental, development", "value": "> 2", "unit": "mg/kg-day"}, {"measurement": "NOAEL", "setting": "Rattus norvegicus; reproduction developmental, reproduction", "value": 3, "unit": "mg/kg-day"}, {"measurement": "NOAEL", "setting": "Rattus norvegicus; subchronic, duration: 90 days, oral, neurology", "value": 2.9, "unit": "mg/kg-day"}, {"measurement": "LD50", "setting": "Apis mellifera", "value": 0.1, "unit": "µg/piece"}, {"measurement": "LC50", "setting": "Tagia sp.", "value": "> 16", "unit": "mg/kg"}, {"measurement": "NOEC", "setting": "Daphnia magna", "value": "9.5e-07", "unit": "mg/L"}, {"measurement": "LEL", "setting": "Aphidius rhopalosiphi", "value": 60, "unit": "g/ha"}]}]}
